{"source": "patent US10400008B2", "about": "“Modulators of the SRC-kinase activity for preventing or treating metastatic cancer” (Cancer Research Technology Limited, priority 2013, dated 2019)", "key": {"[1]": {"target": "AR association with Src-SH3 domain (Homo sapiens, UniProt P12931)", "sequence (P12931 2-536 limits assumed)": "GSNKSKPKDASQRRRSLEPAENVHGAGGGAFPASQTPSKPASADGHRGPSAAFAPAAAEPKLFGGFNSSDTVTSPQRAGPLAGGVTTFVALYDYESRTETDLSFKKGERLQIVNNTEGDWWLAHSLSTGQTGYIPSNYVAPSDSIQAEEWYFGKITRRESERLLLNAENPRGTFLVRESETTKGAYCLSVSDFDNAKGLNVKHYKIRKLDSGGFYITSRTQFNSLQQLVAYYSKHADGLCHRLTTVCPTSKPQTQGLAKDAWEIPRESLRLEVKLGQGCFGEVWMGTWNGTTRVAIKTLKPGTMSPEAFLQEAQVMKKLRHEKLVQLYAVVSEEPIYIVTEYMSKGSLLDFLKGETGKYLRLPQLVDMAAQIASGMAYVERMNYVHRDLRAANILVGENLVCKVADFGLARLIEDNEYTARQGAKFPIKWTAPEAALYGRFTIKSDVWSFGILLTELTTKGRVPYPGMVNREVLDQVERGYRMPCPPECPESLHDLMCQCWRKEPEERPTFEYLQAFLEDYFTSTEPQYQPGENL", "settings": "androgen-challenged LNCaP cells, reference 10; cited from earlier work"}, "[2]": {"tested_on": "offspring from dosed females", "settings": "mouse, in vivo", "text": "Offspring from dosed females were mated and checked for fertility to determine possible inheritable effects."}, "[3]": {"tested_on": "endometriosis lesion", "assay": "In-vivo model of endometriosis (K-ras transgenic donor tissue in wild-type animals), first study", "design": "species or system mice", "settings": "injected for 21 days, four treated animals", "protocol": "In a first study, a total of 4 treatment and 5 control animals were generated in a novel in-vivo model of endometriosis (Research Horizons, University of Cambridge, 2009 Issue 8, GB 0715635.9) K-rasV12/Ah-Cre transgenic mice were crossed with Rosa26R mice to generate KrasV12+/−/Ah-Cre+/−/ROSA26R-LacZ+/− transgenic mice. The F1 offspring were inbred to generate F2 K-rasV12+/−/Ah-Cre+/+/ROSA26R-LacZ+/+ transgenic mice. The presence of the transgenes was determined by PCR using gene specific primers for K-ras, Cre and Rosa26R-LacZ. Tissue was collected from donor animals previously treated with hormones etc. and was divided between wild-type animals that were then injected with drug or vehicle for 21 days."}, "[4]": {"assay": "Body weight in the orthotopic PC-3 prostate cancer model", "protocol": "Mice were weighed twice a week, and after 4 weeks, mice were sacrificed. Gross necropsy was performed to all animals at the end of the study, and all macroscopic signs were recorded. Volume of the prostate tumors was measured and prostate as well as prostate draining lymph nodes were collected for histology. The number of metastasis in lymph nodes was determined under microscope.\nThe animals were weighed twice a week. For the last 5 days of the study, the animals were observed daily to monitor the progression of disease. Appearance of any clinical signs was recorded on follow-up forms. Analgesic was given if needed.\nAt the end of the study, the animals were weighed and sacrificed with cervical dislocation under anesthesia. Necropsy was carried out in all animals. Macroscopic findings were recorded on the follow-up forms. Tissue samples from prostate with tumor and lymph nodes were collected for histology and number of metastases in lymph nodes was determined.\nStatistical analysis was performed with R: A Language and Environment for Statistical Computing (version 2.14.2; R Development Core Team, Vienna, Austria). The mean and standard deviation of the body weights and the tumor volumes at sacrifice were determined. Normality of the distributions and homogeneity of variance were checked before further analyses. In case of violating these assumptions, either log transformation or other appropriate transformation (e.g. square root, reciprocal) was applied. If the assumptions were fulfilled as such or after transformation, one-way ANOVA was used to study if the values obtained between the groups were statistically different (with p<0.05). If differences were found, Tukey's HSD test was used for pairwise comparison between all groups. If the assumptions were not fulfilled even after the transformations described above, the non-parametric Kruskal-Wallis test followed by Mann-Whitney U-test were used.\nWe have studied the effects of Val201 on cell proliferation of the ER positive human prostate cancer cell line PC-3 in vitro and growth and metastatis in vivo in an orthotopic xenograft model. The proliferation effects were studied for 100 pM, 1 nM, 10 nM, 100 nM and 1 μM concentrations of VAL201 by measuring WST-1 values at days 3, 5, 7 and 9. Groups with vehicle and 1 μM gemcitabine as reference compound were included in the study. […] PC-3 cells in Matrigel were inoculated orthotopically into the prostate. Subcutaneous dosing was started at day 1 and continued daily for 28 days. The mice were weighed twice a week. Orthotopic tumors were measured by calliper and the prostate and the regional lymph nodes were harvested at sacrifice. Metastases in lymph nodes were determined from HE stained paraffin sections."}, "[5]": {"target": "T1, Src (Homo sapiens, UniProt P12931)", "T1 construct": "lysates were immune-precipitated with the anti-Src MAb and Src activity in immune-complexes was assayed using enolase as a substrate; endogenous in cells; host or cells: HT1080 human fibrosarcoma cells", "T1 sequence (P12931 whole entry)": "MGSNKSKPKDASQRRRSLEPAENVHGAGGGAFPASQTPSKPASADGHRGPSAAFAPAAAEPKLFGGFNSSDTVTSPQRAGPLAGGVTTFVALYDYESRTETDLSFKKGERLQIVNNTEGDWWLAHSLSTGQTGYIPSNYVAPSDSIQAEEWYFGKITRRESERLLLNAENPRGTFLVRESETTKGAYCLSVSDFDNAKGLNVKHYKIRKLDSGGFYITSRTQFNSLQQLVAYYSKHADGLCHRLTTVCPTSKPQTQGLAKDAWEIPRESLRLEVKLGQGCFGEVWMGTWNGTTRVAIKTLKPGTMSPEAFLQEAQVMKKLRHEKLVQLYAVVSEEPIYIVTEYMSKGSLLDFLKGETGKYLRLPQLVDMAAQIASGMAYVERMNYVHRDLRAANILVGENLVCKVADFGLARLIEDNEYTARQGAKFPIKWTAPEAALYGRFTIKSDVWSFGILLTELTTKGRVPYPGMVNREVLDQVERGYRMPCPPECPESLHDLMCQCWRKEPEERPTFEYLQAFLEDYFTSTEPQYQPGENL", "assay": "Src kinase assay in immune-complexes with enolase as substrate, EGF-stimulated HT1080 cells", "format": "cell-based", "settings": "EGF 100 ng/ml 10 min, peptide 1 nM", "protocol": "FIG. 3: Inhibition by S1 peptide of AR/Src complex, Src activation and DNA synthesis triggered by EGF in HT1080 cells. Quiescent HT1080 cells were used. The cells were left un-stimulated or stimulated for 10 min with EGF (at 100 ng/ml; Roche) in the absence or presence of S1 or Ss peptide (both at 1 nM). Casodex (at 10 μM) was used for comparison with the S1 peptide. The same concentrations of peptides and Casodex were used throughout the experiments. Upper section in A, the Western blot of HT1080 cell lysates with anti-EGFR antibody is shown. […] Lower section in A, lysates were immune-precipitated with anti EGFR Ab and proteins in immune-complexes were detected using antibodies against the indicated proteins. In B, lysates were immune-precipitated with the anti-Src MAb and Src activity in immune-complexes was assayed using enolase as a substrate. In C, cells on coverslips were left untreated or treated for 18 h with the indicated compounds. After in vivo pulse with BrdU (100 μM; Sigma), BrdU incorporation was analyzed by IF and expressed as % of total nuclei. Mean and SEM are shown. n represents the number of experiments.\nSrc tyrosine kinase was immune-precipitated, detected and assayed using enolase as a substrate (15). Src, EGF-R and tubulin were detected from cell lysates using appropriate antibodies (7). AR was immune-precipitated and detected as reported (3). […]"}}, "note": "Values joined by “and” are separate entries in the source; they are usually repeats but may differ in a detail not shown here. Identical values can stand only once."}
{"substance": "Ac-PPPHPHARIK-NH2 [VAL001]", "values": [{"measurement": "AR association with Src-SH3 domain", "setting": "[1]", "value": "competes"}, {"measurement": "fertility of offspring from dosed females", "setting": "[2]", "value": "no abnormalities noted"}, {"measurement": "absence of lesion following treatment", "setting": "[3]", "value": "three showed complete absence of lesion"}, {"measurement": "Body weight at sacrifice relative to maximum weight", "setting": "[4]; 0.004 mg/kg, mean", "value": 96.6}, {"measurement": "Body weight at sacrifice relative to maximum weight", "setting": "[4]; 0.004 mg/kg, single animals", "value": "95.1 (2×) and 100.0 and 93.8 and 95.7 and 97.9 and 94.1 and 97.8 and 97.6 and 99.2"}, {"measurement": "Body weight at sacrifice relative to maximum weight", "setting": "[4]; 0.04 mg/kg, mean", "value": 96.1}, {"measurement": "Body weight at sacrifice relative to maximum weight", "setting": "[4]; 0.04 mg/kg, single animals", "value": "100.0 and 96.1 and 94.9 and 96.7 and 93.8 and 93.0 and 94.8 and 98.0 (2×) and 96.2"}, {"measurement": "Body weight at sacrifice relative to maximum weight", "setting": "[4]; 0.4 mg/kg, mean", "value": 97.6}, {"measurement": "Body weight at sacrifice relative to maximum weight", "setting": "[4]; 0.4 mg/kg, single animals", "value": "98.2 and 91.1 and 96.6 and 90.7 and 100.0 (4×) and 99.5 and 99.6"}, {"measurement": "Body weight at sacrifice relative to maximum weight", "setting": "[4]; 4 mg/kg, mean", "value": 95.3}, {"measurement": "Body weight at sacrifice relative to maximum weight", "setting": "[4]; 4 mg/kg, single animals", "value": "100.0 and 90.8 and 86.2 and 95.7 and 96.8 and 95.5 and 98.2 and 98.4 and 98.0 and 93.3"}, {"measurement": "EGF stimulation of Src activity", "setting": "[5]", "value": "almost completely abolished"}]}
